Results reported in PubChem BioAssay (NCI).
≈ marks a conversion by molar mass, not a printed value.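 Cultured in 96-well plates, cells were exposed to test compound for 48 hours across five concentrations. GI50: concentration for 50% inhibition of growth. TGI is the concentration that stops growth completely.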

Tests used:
Test in all cases: inhibition of tumour cell growth, NCI panel, 48 h
[1] = tested on: SW-620 colon
[2] = tested on: RXF 393 renal
[3] = tested on: RPMI-8226 leukemia
[4] = tested on: COLO 205 colon
[5] = tested on: HOP-62 NSCLC
[6] = tested on: MALME-3M melanoma
[7] = tested on: UACC-62 melanoma
[8] = tested on: ACHN renal
[9] = tested on: M14 melanoma
[10] = tested on: SK-MEL-28 melanoma
[11] = tested on: HCT-116 colon
[12] = tested on: K-562 leukemia
[13] = tested on: MDA-MB-435
[14] = tested on: SK-MEL-5 melanoma
[15] = tested on: KM12 colon
[16] = tested on: LOX IMVI melanoma
[17] = tested on: OVCAR-8 ovarian
[18] = tested on: SF-268 CNS
[19] = tested on: A549 NSCLC
[20] = tested on: SF-539 CNS
[21] = tested on: OVCAR-5 ovarian
[22] = tested on: UACC-257 melanoma
[23] = tested on: IGROV1 ovarian
[24] = tested on: OVCAR-3 ovarian
[25] = tested on: PC-3 prostate
[26] = tested on: EKVX NSCLC
[27] = tested on: TK-10 renal
[28] = tested on: U251 CNS
[29] = tested on: NCI-H23 lung
[30] = tested on: BT-549 breast
[31] = tested on: UO-31 renal
[32] = tested on: HL-60(TB) leukemia
[33] = tested on: MDA-N
[34] = tested on: CAKI-1 renal
[35] = tested on: SR leukemia
[36] = tested on: NCI/ADR-RES ovarian
[37] = tested on: SNB-75 CNS
[38] = tested on: HT29 colon
[39] = tested on: SN12C renal
[40] = tested on: CCRF-CEM leukemia
[41] = tested on: SF-295 CNS
[42] = tested on: SNB-19 CNS
[43] = tested on: SK-OV-3 ovarian
[44] = tested on: MDA-MB-231 breast
[45] = tested on: T-47D breast
[46] = tested on: HCT-15 colon
[47] = tested on: HS 578T breast
[48] = tested on: NCI-H460 lung
[49] = tested on: DU-145 prostate
[50] = tested on: OVCAR-4 ovarian
[51] = tested on: MCF7 breast
[52] = tested on: MOLT-4 leukemia

CC1(C)CC(=O)C2=C(C1)NC(SSC1=C(C#N)C(c3ccc(F)cc3)C3=C(CC(C)(C)CC3=O)N1)=C(C#N)C2c1ccc(F)cc1 (centres undefined)
GI50 [1]: 6.93 mg/L (≈ 10.6 µM)
TGI [1]: 25 mg/L (≈ 38.1 µM)
GI50 [2]: 21.4 mg/L (≈ 32.7 µM)
TGI [2]: 41.1 mg/L (≈ 62.7 µM)
GI50 [3]: 50.5 mg/L (≈ 77.1 µM)
TGI [3]: 118 mg/L (≈ 181 µM)
GI50 [4]: 29.1 mg/L (≈ 44.4 µM)
TGI [4]: 55.8 mg/L (≈ 85.2 µM)
GI50 [5]: 108 mg/L (≈ 164 µM)
TGI [5]: > 150 mg/L
GI50 [6]: 31.8 mg/L (≈ 48.5 µM)
TGI [6]: 56.6 mg/L (≈ 86.5 µM)
GI50 [7]: 23.7 mg/L (≈ 36.2 µM)
TGI [7]: 43.9 mg/L (≈ 67 µM)
GI50 [8]: 28.7 mg/L (≈ 43.8 µM)
TGI [8]: 53.7 mg/L (≈ 82 µM)
GI50 [9]: 22.6 mg/L (≈ 34.5 µM)
TGI [9]: 49.5 mg/L (≈ 75.6 µM)
GI50 [10]: 25.8 mg/L (≈ 39.4 µM)
TGI [10]: 46.4 mg/L (≈ 70.9 µM)
GI50 [11]: 26.5 mg/L (≈ 40.5 µM)
TGI [11]: 47.3 mg/L (≈ 72.2 µM)
GI50 [12]: 17.1 mg/L (≈ 26.1 µM)
TGI [12]: > 150 mg/L
GI50 [13]: 26.2 mg/L (≈ 40 µM)
TGI [13]: 46.9 mg/L (≈ 71.6 µM)
GI50 [14]: 22.9 mg/L (≈ 35 µM)
TGI [14]: 44.7 mg/L (≈ 68.3 µM)
GI50 [15]: 52.9 mg/L (≈ 80.7 µM)
TGI [15]: > 150 mg/L
GI50 [16]: 30.5 mg/L (≈ 46.5 µM)
TGI [16]: 63.3 mg/L (≈ 96.7 µM)
GI50 [17]: 28.8 mg/L (≈ 44 µM)
TGI [17]: 49.9 mg/L (≈ 76.2 µM)
GI50 [18]: 29.3 mg/L (≈ 44.8 µM)
TGI [18]: 58.4 mg/L (≈ 89.2 µM)
GI50 [19]: 15 mg/L (≈ 22.9 µM)
TGI [19]: 15 mg/L (≈ 22.9 µM)
GI50 [20]: 23.4 mg/L (≈ 35.8 µM)
TGI [20]: 43.5 mg/L (≈ 66.4 µM)
GI50 [21]: 106 mg/L (≈ 162 µM)
TGI [21]: > 150 mg/L
GI50 [22]: 30.2 mg/L (≈ 46.2 µM)
TGI [22]: 51.6 mg/L (≈ 78.8 µM)
GI50 [23]: 15 mg/L (≈ 22.9 µM)
TGI [23]: 15 mg/L (≈ 22.9 µM)
GI50 [24]: 25.6 mg/L (≈ 39.1 µM)
TGI [24]: 46.1 mg/L (≈ 70.5 µM)
GI50 [25]: 27.1 mg/L (≈ 41.3 µM)
TGI [25]: 48 mg/L (≈ 73.4 µM)
GI50 [26]: 35.5 mg/L (≈ 54.2 µM)
TGI [26]: 78.5 mg/L (≈ 120 µM)
GI50 [27]: 23.6 mg/L (≈ 36.1 µM)
TGI [27]: 46 mg/L (≈ 70.3 µM)
GI50 [28]: 15 mg/L (≈ 22.9 µM)
TGI [28]: 15 mg/L (≈ 22.9 µM)
GI50 [29]: 31.1 mg/L (≈ 47.5 µM)
TGI [29]: 68.2 mg/L (≈ 104 µM)
GI50 [30]: 30 mg/L (≈ 45.8 µM)
TGI [30]: 55.4 mg/L (≈ 84.7 µM)
GI50 [31]: 32 mg/L (≈ 48.9 µM)
TGI [31]: 74.9 mg/L (≈ 114 µM)
GI50 [32]: 47.1 mg/L (≈ 72 µM)
TGI [32]: > 150 mg/L
GI50 [33]: 27.2 mg/L (≈ 41.5 µM)
TGI [33]: 48.4 mg/L (≈ 73.9 µM)
GI50 [34]: 29.5 mg/L (≈ 45 µM)
TGI [34]: 50.7 mg/L (≈ 77.4 µM)
GI50 [35]: 48.9 mg/L (≈ 74.6 µM)
TGI [35]: > 150 mg/L
GI50 [36]: 40.9 mg/L (≈ 62.5 µM)
TGI [36]: 128 mg/L (≈ 196 µM)
GI50 [37]: 41.3 mg/L (≈ 63.1 µM)
TGI [37]: > 150 mg/L
GI50 [38]: 25.1 mg/L (≈ 38.3 µM)
TGI [38]: 47.2 mg/L (≈ 72.2 µM)
GI50 [39]: 27.9 mg/L (≈ 42.6 µM)
TGI [39]: 52.1 mg/L (≈ 79.6 µM)
GI50 [40]: 34.1 mg/L (≈ 52.1 µM)
TGI [40]: 136 mg/L (≈ 207 µM)
GI50 [41]: 150 mg/L (≈ 229 µM)
TGI [41]: > 150 mg/L
GI50 [42]: 77.1 mg/L (≈ 118 µM)
TGI [42]: > 150 mg/L
GI50 [43]: 15 mg/L (≈ 22.9 µM)
TGI [43]: 15 mg/L (≈ 22.9 µM)
GI50 [44]: 29 mg/L (≈ 44.2 µM)
TGI [44]: 51.7 mg/L (≈ 79 µM)
GI50 [45]: 15 mg/L (≈ 22.9 µM)
TGI [45]: 15 mg/L (≈ 22.9 µM)
GI50 [46]: 30.3 mg/L (≈ 46.3 µM)
TGI [46]: 64 mg/L (≈ 97.7 µM)
GI50 [47]: 76.9 mg/L (≈ 117 µM)
TGI [47]: > 150 mg/L
GI50 [48]: 47.8 mg/L (≈ 73 µM)
TGI [48]: > 150 mg/L
GI50 [49]: 15 mg/L (≈ 22.9 µM)
TGI [49]: 15 mg/L (≈ 22.9 µM)
GI50 [50]: 27.7 mg/L (≈ 42.3 µM)
TGI [50]: 52.7 mg/L (≈ 80.5 µM)
GI50 [51]: 32.3 mg/L (≈ 49.3 µM)
TGI [51]: 72.3 mg/L (≈ 110 µM)
GI50 [52]: 39.1 mg/L (≈ 59.8 µM)
TGI [52]: 118 mg/L (≈ 181 µM)
